Source: PubChem BioAssay AID1963825 (Molecular Pharmacology Branch, DTP, NCI, 2024)

Assay: Anticancer human tumor 997537-175-T-J1-PDC patient-derived colon adenocarcinoma cell line growth inhibition [POLQ]
Settings: 997537-175-T-J1-PDC complex spheroid viability, combination with POLQ inhibitors; for IC50: curve of first compound; for viability, T/C: stronger effect = lower value
Method: Multicellular complex tumor spheroid response to Polymerase (POL) inhibitors (novobiocin, ART-558, RP6685) in combination with a variety of drugs and investigational agents in selected tumor cell lines
The POL inhibitors (novobiocin, ART-558, and RP6685) were evaluated both individually and in combination with standard of care and investigational anticancer small molecules within a complex spheroid model of solid tumors. . Complex spheroids include a stromal component modeled by human endothelial cells (HUVEC) and fibroblasts modeled by human mesenchymal stem cells (MSCs). The concentration ranges selected for each drug and investigational agent were based upon clinically achievable concentrations if the clinical Cmax of the agent was known.
Compounds. The drugs and investigational agents: novobiocin (NSC847541), ART-558 (NSC835418), RP-6685 (NSC848927), peposertib (NSC802822), ceralasertib (NSC780249), elimusertib (NSC800525), camonsertib (NSC841442), AZD-1390 (NSC803789), olaparib (NSC753686), talazoparib (NSC767125), rucaparib (NSC756644), sotorasib (NSC818433), MRTX-1133 (NSC836407), SN-38 (NSC673596), topotecan (NSC609699), epotoside (NSC141540), doxorubicin (NSC123127), gemcitabine (NSC613327), 5-fluorouracil (NSC19893), paclitaxel (NSC125973), vemurafenib (NSC761431), MSA-2 (NSC828583), SN-011 (NSC837082), adavosertib (NSC754352), prexasertib (NSC758257), carboplatin (NSC241240) and oxaliplatin (NSC266046), were obtained from the National Cancer Institute (NCI) Developmental Therapeutics Program Chemical Repository (21). The FDA-approved anticancer drug set is available from the Developmental Therapeutics Program at https://dtp.cancer.gov/organization/dscb/obtaining/. […] The stock solutions were prepared in dimethyl sulfoxide (DMSO, Sigma-Aldrich, St. Louis, MO, cat. D2650), except for the platinum compounds which were prepared in saline (Quality Biological, Gaithersburg, MD, cat. 114-055-101), at 800-fold the tested concentration and stored at -70 degrees C prior to their use. All drugs and investigational agents were tested over a range starting from a high concentration at or near the clinical Cmax and decreasing in half-log increments. If the clinical Cmax for an agent had not been determined, the highest concentration tested was 10 microM, except for SN-38, which was tested at a high concentration of 1 microM.
Cell Culture. All cells were maintained in an incubator at 37 degrees C and 5% CO2 with 95% humidity. The PDC lines were cultured according to standard operating procedures established by the NCI PDMR (https://pdmr.cancer.gov). Table 3 of the manuscript, lists the cell lines along with the number of the three cell types plated to form the mct-spheroids and media for tumor cell growth. After thawing, all PDC lines, except 997537-175-T-J1-PDC and 415267-285-R-J2-PDC, were cultured in Matrigel-coated flasks prepared with a working solution of 1X Ham's F-12 nutrient mix, without supplementation (Thermo Fisher Scientific, cat. 11765054), 100 U/mL penicillin-streptomycin (Thermo Fisher Scientific, cat. 15140122), and 2.5% Matrigel (Corning Inc., Corning, NY, cat. 354248) for the first three passages. The two PDC lines 997537-175-T-J1-PDC and 415267-285-R-J2-PDC were cultured on uncoated flasks. The 857933-349-R-J2-PDC line was cultured in 6C/Colon 1B media containing advanced DMEM/F-12 (Thermo Fisher Scientific, cat. 12634028), 10 mM HEPES (Thermo Fisher Scientific, cat. 15630080), 1X GlutaMAX supplement (Thermo Fisher Scientific, cat. 35050061), 0.1 mg/mL primocin (InvivoGen, San Diego, CA, cat. ant-pm-2), 10% defined fetal bovine serum, heat inactivated (HyClone Laboratories Inc., Logan, UT, cat. SH30070.03HI), 50% L-WRN conditioned media (ATCC, cat. CRL-3276), 1.25 mM N-Acetyl-L-cysteine (Sigma-Aldrich, cat. A9165), 10 mM nicotinamide (Sigma-Aldrich, cat. N0636), 1X B-27 supplement (Thermo Fisher Scientific, cat. 17504044), 1X N-2 supplement (Thermo Fisher Scientific, cat. […]

[1] = second compound 0.0316 µM, first compound 0.0316 µM
[2] = second compound 0.0316 µM, first compound 0.1 µM
[3] = second compound 0.0316 µM, first compound 0.316 µM
[4] = second compound 0.0316 µM, first compound 1 µM
[5] = second compound 0.0316 µM, first compound 3.16 µM
[6] = second compound 0.0316 µM, first compound 10 µM
[7] = second compound 0.1 µM, first compound 0.0316 µM
[8] = second compound 0.1 µM, first compound 0.1 µM
[9] = second compound 0.1 µM, first compound 0.316 µM
[10] = second compound 0.1 µM, first compound 1 µM
[11] = second compound 0.1 µM, first compound 3.16 µM
[12] = second compound 0.1 µM, first compound 10 µM
[13] = second compound 0.316 µM, first compound 0.0316 µM
[14] = second compound 0.316 µM, first compound 0.1 µM
[15] = second compound 0.316 µM, first compound 0.316 µM
[16] = second compound 0.316 µM, first compound 1 µM
[17] = second compound 0.316 µM, first compound 3.16 µM
[18] = second compound 0.316 µM, first compound 10 µM
[19] = second compound 1 µM, first compound 0.0316 µM
[20] = second compound 1 µM, first compound 0.1 µM
[21] = second compound 1 µM, first compound 0.316 µM
[22] = second compound 1 µM, first compound 1 µM
[23] = second compound 1 µM, first compound 3.16 µM
[24] = second compound 1 µM, first compound 10 µM
[25] = second compound 3.16 µM, first compound 0.0316 µM
[26] = second compound 3.16 µM, first compound 0.1 µM
[27] = second compound 3.16 µM, first compound 0.316 µM
[28] = second compound 3.16 µM, first compound 1 µM
[29] = second compound 3.16 µM, first compound 3.16 µM
[30] = second compound 3.16 µM, first compound 10 µM
[31] = second compound 10 µM, first compound 0.0316 µM
[32] = second compound 10 µM, first compound 0.1 µM
[33] = second compound 10 µM, first compound 0.316 µM
[34] = second compound 10 µM, first compound 1 µM
[35] = second compound 10 µM, first compound 3.16 µM
[36] = second compound 10 µM, first compound 10 µM
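Also: luminescence signal used as a surrogate for viable cells; spheroids exposed to drugs for seven days before readout.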

**Q.** What does the source list for `CCCS(=O)(=O)Nc1ccc(F)c(C(=O)c2c[nH]c3ncc(-c4ccc(Cl)cc4)cc23)c1F` + Cc1cccc(N(C)C(=O)C2C(O)CCN2c2nc(C)cc(C(F)(F)F)c2C#N)c1?
**A.** IC50 (second compound 0.0316 µM): 4.85 µM; IC50 (second compound 0.1 µM): 5.35 µM; IC50 (second compound 0.316 µM): 5.84 µM; IC50 (second compound 1 µM): 4.49 µM; IC50 (second compound 3.16 µM): 6.65 µM; IC50 (second compound 10 µM): 5.16 µM; viability, T/C [1]: 100%; viability, T/C [2]: 79.5%; viability, T/C [3]: 82.5%; viability, T/C [4]: 75.4%; viability, T/C [5]: 70.5%; viability, T/C [6]: 22.8%; viability, T/C [7]: 105%; viability, T/C [8]: 91.7%; viability, T/C [9]: 82.4%; viability, T/C [10]: 83%; viability, T/C [11]: 74.5%; viability, T/C [12]: 25.9%; viability, T/C [13]: 105%; viability, T/C [14]: 78%; viability, T/C [15]: 71.7%; viability, T/C [16]: 75.4%; viability, T/C [17]: 80.8%; viability, T/C [18]: 23.1%; viability, T/C [19]: 102%; viability, T/C [20]: 87.4%; viability, T/C [21]: 85.9%; viability, T/C [22]: 75.7%; viability, T/C [23]: 61.5%; viability, T/C [24]: 29.5%; viability, T/C [25]: 85.7%; viability, T/C [26]: 77%; viability, T/C [27]: 77.7%; viability, T/C [28]: 68%; viability, T/C [29]: 75.1%; viability, T/C [30]: 36.7%; viability, T/C [31]: 92.3%; viability, T/C [32]: 88.9%; viability, T/C [33]: 86.1%; viability, T/C [34]: 81.5%; viability, T/C [35]: 73.3%; viability, T/C [36]: 20.6%

**Q.** For `CNCc1ccc(-c2[nH]c3cc(F)cc4c3c2CCNC4=O)cc1` + Cc1cccc(N(C)C(=O)C2C(O)CCN2c2nc(C)cc(C(F)(F)F)c2C#N)c1, which IC50 (second compound 0.0316 µM) is on record?
**A.** The IC50 was over 10 µM.

**Q.** What about the IC50 (second compound 0.1 µM) of the same compound?
**A.** Its IC50 is over 10 µM.

**Q.** What about the IC50 (second compound 0.316 µM) of the same compound?
**A.** Its IC50 is over 10 µM.

**Q.** What about the IC50 (second compound 1 µM) of the same compound?
**A.** Its IC50 is over 10 µM.

**Q.** What about the IC50 (second compound 3.16 µM) of the same compound?
**A.** The IC50 was over 10 µM.

**Q.** And the IC50 (second compound 10 µM)?
**A.** Its IC50 is over 10 µM.

**Q.** What about the viability, T/C [1] of the same compound?
**A.** Its viability, T/C is 94.7%.

**Q.** And the viability, T/C [2]?
**A.** The viability, T/C was 114%.

**Q.** What about the viability, T/C [3] of the same compound?
**A.** The viability, T/C was 81.6%.

**Q.** What about the viability, T/C [4] of the same compound?
**A.** Its viability, T/C is 87.9%.

**Q.** What about the viability, T/C [5] of the same compound?
**A.** The viability, T/C was 109%.

**Q.** And the viability, T/C [6]?
**A.** The viability, T/C was 85.3%.

**Q.** What about the viability, T/C [7] of the same compound?
**A.** The viability, T/C was 119%.

**Q.** And the viability, T/C [8]?
**A.** The viability, T/C was 94.2%.

**Q.** What about the viability, T/C [9] of the same compound?
**A.** The viability, T/C was 103%.

**Q.** What about the viability, T/C [10] of the same compound?
**A.** Its viability, T/C is 104%.

**Q.** What about the viability, T/C [11] of the same compound?
**A.** Its viability, T/C is 101%.

**Q.** What about the viability, T/C [12] of the same compound?
**A.** Its viability, T/C is 121%.

**Q.** And the viability, T/C [13]?
**A.** The viability, T/C was 105%.

**Q.** What about the viability, T/C [14] of the same compound?
**A.** Its viability, T/C is 103%.

**Q.** And the viability, T/C [15]?
**A.** The viability, T/C was 99.5%.

**Q.** What about the viability, T/C [16] of the same compound?
**A.** The viability, T/C was 102%.

**Q.** And the viability, T/C [17]?
**A.** The viability, T/C was 119%.

**Q.** And the viability, T/C [18]?
**A.** The viability, T/C was 89.5%.

**Q.** What about the viability, T/C [19] of the same compound?
**A.** Its viability, T/C is 92.4%.

**Q.** And the viability, T/C [20]?
**A.** The viability, T/C was 113%.

**Q.** What about the viability, T/C [21] of the same compound?
**A.** Its viability, T/C is 99%.

**Q.** And the viability, T/C [22]?
**A.** Its viability, T/C is 86.3%.

**Q.** What about the viability, T/C [23] of the same compound?
**A.** Its viability, T/C is 99.8%.

**Q.** And the viability, T/C [24]?
**A.** Its viability, T/C is 90.2%.

**Q.** And the viability, T/C [25]?
**A.** Its viability, T/C is 116%.

**Q.** And the viability, T/C [26]?
**A.** Its viability, T/C is 84.8%.

**Q.** And the viability, T/C [27]?
**A.** The viability, T/C was 99.8%.

**Q.** What about the viability, T/C [28] of the same compound?
**A.** Its viability, T/C is 117%.

**Q.** And the viability, T/C [29]?
**A.** The viability, T/C was 82.1%.

**Q.** And the viability, T/C [30]?
**A.** Its viability, T/C is 96.9%.

**Q.** And the viability, T/C [31]?
**A.** The viability, T/C was 103%.

**Q.** What about the viability, T/C [32] of the same compound?
**A.** The viability, T/C was 112%.

**Q.** And the viability, T/C [33]?
**A.** Its viability, T/C is 94.2%.

**Q.** What about the viability, T/C [34] of the same compound?
**A.** Its viability, T/C is 101%.

**Q.** And the viability, T/C [35]?
**A.** Its viability, T/C is 95.5%.

**Q.** What about the viability, T/C [36] of the same compound?
**A.** The viability, T/C was 89.4%.
